From ChEMBL document CHEMBL3044960, “Evaluation of fungicide applications to sweet orange at different flowering stages for control of postbloom fruit drop caused by Colletotrichum acutatum” (2008)
Active and inactive are the calls of the source. The calls are words filed in the database; no cut-off is given here.

Experiments:
[1] = system: Colletotrichum acutatum; assay: Fungicidal activity against Colletotrichum acutatum infested Citrus sinensis assessed as total fruit weight per plant at 0.056 g/l applied through airblast sprayer during white bud and hollow ball flower stages measured after 70 days (Rvb =49.88 kg)s; format: functional
[2] = system: Colletotrichum acutatum; assay: Fungicidal activity against Colletotrichum acutatum infested Citrus sinensis assessed as total fruit weight per plant at 0.056 g/l applied through airblast sprayer during green bud and hollow ball flower stages measured after 70 days (Rvb =49.88 kg); format: functional
[3] = system: Colletotrichum acutatum; assay: Fungicidal activity against Colletotrichum acutatum infested Citrus sinensis assessed as total fruit weight per plant at 0.056 g/l applied through airblast sprayer during open flower stage measured after 70 days (Rvb =49.88 kg); format: functional
[4] = system: Colletotrichum acutatum; assay: Fungicidal activity against Colletotrichum acutatum infested Citrus sinensis assessed as total fruit weight per plant at 0.056 g/l applied through airblast sprayer during hollow ball flower stage measured after 70 days (Rvb =49.88 kg); format: functional
[5] = system: Colletotrichum acutatum; assay: Fungicidal activity against Colletotrichum acutatum infested Citrus sinensis assessed as total fruit weight per plant at 0.056 g/l applied through airblast sprayer during green bud until open flower stages measured after 70 days (Rvb =65.90 kg); format: functional
[6] = system: Colletotrichum acutatum; assay: Fungicidal activity against Colletotrichum acutatum infested Citrus sinensis assessed as total fruit weight per plant at 0.056 g/l applied through airblast sprayer during green bud, white bud and hollow ball flower stages measured after 70 days (Rvb =65.90 kg); format: functional
[7] = system: Colletotrichum acutatum; assay: Fungicidal activity against Colletotrichum acutatum infested Citrus sinensis assessed as total fruit weight per plant at 0.056 g/l applied through airblast sprayer during green bud and white bud flower stages measured after 70 days (Rvb =65.90 kg); format: functional
[8] = system: Colletotrichum acutatum; assay: Fungicidal activity against Colletotrichum acutatum infested Citrus sinensis assessed as total fruit weight per plant at 0.056 g/l applied through airblast sprayer during green bud flower stage measured after 70 days (Rvb =65.90 kg); format: functional
[9] = system: Colletotrichum acutatum; assay: Fungicidal activity against Colletotrichum acutatum infested Citrus sinensis assessed as increase in fruit set at 0.056 g/l applied through airblast sprayer during green bud and white bud flower stages measured after 70 days; format: functional, organism-based
[10] = system: Colletotrichum acutatum; assay: Fungicidal activity against Colletotrichum acutatum infested Citrus sinensis assessed as increase in fruit set at 0.056 g/l applied through airblast sprayer during green bud flower stage measured after 70 days; format: functional, organism-based
[11] = system: Colletotrichum acutatum; assay: Fungicidal activity against Colletotrichum acutatum infested Citrus sinensis assessed as reduction in number of symptomatic flowers at 0.056 g/l applied through airblast sprayer during green bud until open flower stages measured after 7 days; format: functional, organism-based
[12] = system: Colletotrichum acutatum; assay: Fungicidal activity against Colletotrichum acutatum infested Citrus sinensis assessed as reduction in number of symptomatic flowers at 0.056 g/l applied through airblast sprayer during green bud, white bud and hollow ball flower stages measured after 7 days; format: functional, organism-based
[13] = system: Colletotrichum acutatum; assay: Fungicidal activity against Colletotrichum acutatum infested Citrus sinensis assessed as increase in fruit set at 0.056 g/l applied through airblast sprayer during green bud, white bud and hollow ball flower stages measured after 70 days; format: functional, organism-based
[14] = system: Colletotrichum acutatum; assay: Fungicidal activity against Colletotrichum acutatum infested Citrus sinensis assessed as increase in fruit set at 0.056 g/l applied through airblast sprayer during open flower stage measured after 70 days; format: functional, organism-based
[15] = system: Colletotrichum acutatum; assay: Fungicidal activity against Colletotrichum acutatum infested Citrus sinensis assessed as reduction in symptomatic flowers at 0.056 g/l applied through airblast sprayer during open flower stage measured after 7 days; format: functional, organism-based
[16] = system: Colletotrichum acutatum; assay: Fungicidal activity against Colletotrichum acutatum infested Citrus sinensis assessed as reduction in symptomatic flowers at 0.056 g/l applied through airblast sprayer during hollow ball flower stage measured after 7 days; format: functional, organism-based
[17] = system: Colletotrichum acutatum; assay: Fungicidal activity against Colletotrichum acutatum infested Citrus sinensis assessed as reduction in symptomatic flowers at 0.056 g/l applied through airblast sprayer during white bud and hollow ball flower stages measured after 7 days; format: functional, organism-based
[18] = system: Colletotrichum acutatum; assay: Fungicidal activity against Colletotrichum acutatum infested Citrus sinensis assessed as reduction in symptomatic flowers at 0.056 g/l applied through airblast sprayer during green bud and hollow ball flower stages measured after 7 days; format: functional, organism-based
[19] = system: Colletotrichum acutatum; assay: Fungicidal activity against Colletotrichum acutatum infested Citrus sinensis assessed as increase in fruit set at 0.056 g/l applied through airblast sprayer during green bud until open flower stages measured after 70 days; format: functional, organism-based
[20] = system: Colletotrichum acutatum; assay: Fungicidal activity against Colletotrichum acutatum infested Citrus sinensis assessed as increase in fruit set at 1.25 g/l applied through airblast sprayer during white bud and hollow ball flower stages measured after 70 days relative to control; format: functional, organism-based
[21] = system: Colletotrichum acutatum; assay: Fungicidal activity against Colletotrichum acutatum infested Citrus sinensis assessed as reduction in number of symptomatic flowers at 1.25 g/l applied through airblast sprayer during green bud, white bud and hollow ball flower stages measured after 7 days; format: functional, organism-based
[22] = system: Colletotrichum acutatum; assay: Fungicidal activity against Colletotrichum acutatum infested Citrus sinensis assessed as reduction in persistant calyces at 1.25 g/l applied through airblast sprayer during green bud to white ball flower stages measured after 7 days; format: functional, organism-based
[23] = system: Colletotrichum acutatum; assay: Fungicidal activity against Colletotrichum acutatum infested Citrus sinensis assessed as reduction in persistant calyces at 1 g/l applied through airblast sprayer during green bud to white ball flower stages measured after 7 days; format: functional, organism-based
[24] = system: Colletotrichum acutatum; assay: Fungicidal activity against Colletotrichum acutatum infested Citrus sinensis assessed as increase in fruit set percentage at 1.25 g/l applied through airblast sprayer during green bud to white ball flower stages measured after 70 days; format: functional, organism-based
[25] = system: Colletotrichum acutatum; assay: Fungicidal activity against Colletotrichum acutatum infested Citrus sinensis assessed as increase in fruit set percentage at 1 g/l applied through airblast sprayer during green bud to white ball flower stages measured after 70 days; format: functional, organism-based
[26] = system: Colletotrichum acutatum; assay: Fungicidal activity against Colletotrichum acutatum infested Citrus sinensis assessed as increase in fruit production per tree at 1.25 g/l applied through airblast sprayer during green bud to white ball flower stages measured after 70 days; format: functional, organism-based
[27] = system: Colletotrichum acutatum; assay: Fungicidal activity against Colletotrichum acutatum infested Citrus sinensis assessed as increase in fruit production per tree at 1 g/l applied through airblast sprayer during green bud to white ball flower stages measured after 70 days; format: functional, organism-based
[28] = system: Colletotrichum acutatum; assay: Fungicidal activity against Colletotrichum acutatum infested Citrus sinensis assessed as total fruit weight per plant at 1.25 g/l applied through airblast sprayer during white bud and hollow ball flower stages measured after 70 days (Rvb =49.88 kg); format: functional
[29] = system: Colletotrichum acutatum; assay: Fungicidal activity against Colletotrichum acutatum infested Citrus sinensis assessed as total fruit weight per plant at 1.25 g/l applied through airblast sprayer during green bud and hollow ball flower stages measured after 70 days (Rvb =49.88 kg); format: functional
[30] = system: Colletotrichum acutatum; assay: Fungicidal activity against Colletotrichum acutatum infested Citrus sinensis assessed as total fruit weight per plant at 1.25 g/l applied through airblast sprayer during open flower stage measured after 70 days (Rvb =49.88 kg); format: functional
[31] = system: Colletotrichum acutatum; assay: Fungicidal activity against Colletotrichum acutatum infested Citrus sinensis assessed as total fruit weight per plant at 1.25 g/l applied through airblast sprayer during hollow ball flower stage measured after 70 days (Rvb =49.88 kg); format: functional
[32] = system: Colletotrichum acutatum; assay: Fungicidal activity against Colletotrichum acutatum infested Citrus sinensis assessed as total fruit weight per plant at 1.25 g/l applied through airblast sprayer during green bud until open flower stages measured after 70 days (Rvb =65.90 kg); format: functional
[33] = system: Colletotrichum acutatum; assay: Fungicidal activity against Colletotrichum acutatum infested Citrus sinensis assessed as total fruit weight per plant at 1.25 g/l applied through airblast sprayer during green bud, white bud and hollow ball flower stages measured after 70 days (Rvb =65.90 kg); format: functional
[34] = system: Colletotrichum acutatum; assay: Fungicidal activity against Colletotrichum acutatum infested Citrus sinensis assessed as total fruit weight per plant at 1.25 g/l applied through airblast sprayer during green bud and white bud flower stages measured after 70 days (Rvb =65.90 kg); format: functional
[35] = system: Colletotrichum acutatum; assay: Fungicidal activity against Colletotrichum acutatum infested Citrus sinensis assessed as total fruit weight per plant at 1.25 g/l applied through airblast sprayer during green bud flower stage measured after 70 days (Rvb =65.90 kg); format: functional
[36] = system: Colletotrichum acutatum; assay: Fungicidal activity against Colletotrichum acutatum infested Citrus sinensis assessed as increase in fruit set at 1.25 g/l applied through airblast sprayer during green bud, white bud and hollow ball flower stages measured after 70 days; format: functional, organism-based
[37] = system: Colletotrichum acutatum; assay: Fungicidal activity against Colletotrichum acutatum infested Citrus sinensis assessed as increase in fruit set at 1.25 g/l applied through airblast sprayer during open flower stage measured after 70 days; format: functional, organism-based
[38] = system: Colletotrichum acutatum; assay: Fungicidal activity against Colletotrichum acutatum infested Citrus sinensis assessed as reduction in symptomatic flowers at 1.25 g/l applied through airblast sprayer during open flower stage measured after 7 days; format: functional, organism-based
[39] = system: Colletotrichum acutatum; assay: Fungicidal activity against Colletotrichum acutatum infested Citrus sinensis assessed as reduction in symptomatic flowers at 1.25 g/l applied through airblast sprayer during hollow ball flower stage measured after 7 days; format: functional, organism-based
[40] = system: Colletotrichum acutatum; assay: Fungicidal activity against Colletotrichum acutatum infested Citrus sinensis assessed as reduction in symptomatic flowers at 1.25 g/l applied through airblast sprayer during white bud and hollow ball flower stages measured after 7 days; format: functional, organism-based
[41] = system: Colletotrichum acutatum; assay: Fungicidal activity against Colletotrichum acutatum infested Citrus sinensis assessed as reduction in symptomatic flowers at 1.25 g/l applied through airblast sprayer during green bud and hollow ball flower stages measured after 7 days; format: functional, organism-based

CC1COC(Cn2cncn2)(c2ccc(Oc3ccc(Cl)cc3)cc2Cl)O1 (stereo unspecified) [DIFENOCONAZOLE]
Activity [1]: 32.7 kg
Activity [2]: 53.5 kg
Activity [3]: 38 kg
Activity [4]: 71.4 kg
Activity [5]: 47.2 kg
Activity [6]: 53.9 kg
Activity [7]: 38.7 kg
Activity [8]: 59.2 kg
Activity [9]: inactive
Activity [10]: inactive
Activity [11]: Active
Activity [12]: Active
Activity [13]: inactive
Activity [14]: inactive
Activity [15]: inactive
Activity [16]: inactive
Activity [17]: Active
Activity [18]: Active
Activity [19]: inactive

O=C1c2ccccc2C(=O)N1SC(Cl)(Cl)Cl [FOLPET]
Activity [20]: Active
Activity [21]: Active
Activity [22]: Active
Activity [23]: Active
Activity [24]: Active
Activity [25]: Active
Activity [26]: Active
Activity [27]: Active
Activity [28]: 59.6 kg
Activity [29]: 46 kg
Activity [30]: 61.2 kg
Activity [31]: 48.2 kg
Activity [32]: 86.9 kg
Activity [33]: 87.7 kg
Activity [34]: 53.5 kg
Activity [35]: 48.7 kg
Activity [36]: Active
Activity [37]: inactive
Activity [38]: inactive
Activity [39]: Active
Activity [40]: Active
Activity [41]: Active
